The results in this text go back to article PMC8587047, “Synthesis and Biological Evaluation of Harmirins, Novel Harmine–Coumarin Hybrids as Potential Anticancer Agents” (Molecules, 2021).

Entries after “also recorded” stand apart in the source; their conditions may differ.

In one series the test system is HepG2. Nature of the series: MTT cytotoxicity assay, HepG2. It is filed as cell-based. As to conditions: Homo sapiens, HepG2; MTT, 72 h, mean ± SD; read-out: IC50 HepG2. The text has this:
(§1) We selected four different cancer cell lines for antiproliferative screening in vitro, which we believed would provide sufficient data on the anticancer potential of the prepared harmirins (hepatocellular carcinoma—HepG2, colorectal adenocarcinoma, Dukes’ type C—SW620, colorectal carcinoma—HCT116, and breast adenocarcinoma—MCF-7). Additionally, we included one non-cancer cell line (embryonic kidney—HEK293T) to evaluate harmirins’ selectivity. The commonly used anticancer drug 5-FU and harmine were used as positive controls. Pre-screening was performed using 50 µM of the tested compound. Only compounds that led to more than 50% reduction in mitochondrial metabolic activity at 50 µM concentration were selected for further analysis. The selectivity index (SI) for each harmirin was calculated as a fractional ratio between the IC50 values for HEK293T and the cancer cell line MCF-7 or HCT116 since these two cell lines were the most susceptible to harmirins.
(§2) The experiments were carried out on five human cell lines purchased from American Type Culture Collection (ATCC, PO BOX 1549, manassas, VA 20108, USA): HepG2 (hepatocellular carcinoma; ATCC® HB-8065™), SW620 (colorectal adenocarcinoma; ATCC® CCL-227™), HCT116 (colorectal carcinoma ATCC® CCL-247™), MCF-7 (breast adenocarcinoma, ATCC® HTB-22™), and HEK293T (embryonic kidney cells; ATCC® CRL-3216™). All cell lines were cultured as monolayers and maintained in Dulbecco’s modified Eagle medium (DMEM) (Capricorn Scientific, USA), supplemented with 10% fetal bovine serum (FBS) (Capricorn Scientific, USA), 100 U/mL penicillin, and 100 µg/mL streptomycin (Capricorn Scientific, USA) in a humidified atmosphere with 5% CO2 at 37 °C. Cells were seeded in 96-well plates (Corning, Durham, NC, USA) at 5000–7000 cells per well (depending on the cell doubling time of a specific cell line) in 0.1 mL media and cultured for 24 h. The next day, the medium was aspirated, and cells were treated for 72 h. Only the compounds that led to more than a 50% reduction in mitochondrial metabolic activity at a concentration of 50 µM were selected for further analysis. The following concentrations of selected compounds were used: 25, 10, 5, and 1 µM. Working dilutions were freshly prepared on the day of the testing. A fresh growth medium was added to untreated control cells, which were defined as 100% viable. DMSO (0.13%) in DMEM was considered a negative control. 5-Fluorouracil (5-FU) and harmine were used as positive controls. At the end of treatment, media was removed, and cells were incubated for 1 h with 0.5 mg/mL MTT (Abcam, Cambridge, MA, USA) dissolved in serum-deprived DMEM. The absorbance was directly proportional to cell viability. The MTT-containing media was then removed, and 0.1 mL isopropanol was added per well to lyse cells and dissolve formazan. The optical density was measured at 570 nm using a microplate reader (VICTOR3, PerkinElmer). Each test point was performed in triplicate. The IC50 values (concentration required to decrease viability by 50%) were calculated by using nonlinear regression on the sigmoidal dose–response plots and are expressed as mean ± SD.
(In general: Tetrazolium dyes change colour on reduction, which living cells bring about.)

In a further series the test system is SW620. Nature of the series: MTT cytotoxicity assay, SW620. It is filed as cell-based. As to conditions: Homo sapiens, SW-620; MTT, 72 h, mean ± SD; read-out: IC50 SW620.
Text: as §1, §2

Another series deals with HCT116. Put plainly: MTT cytotoxicity assay, HCT116. It is filed as cell-based, human.
Text: as §1, §2

The next series deals with MCF-7. Nature of the series: MTT cytotoxicity assay, MCF-7. Format: cell-based, human.
Text: as §1, §2

The test system of another series is HEK293T. Nature of the series: MTT cytotoxicity assay, HEK293T (non-cancer). Format: cell-based, human.
Text: as §1, §2

Series [1] concerns MCF-7 cells. Nature of the series: Cell localization by fluorescence microscopy. It is filed as cell-based, human. As to conditions: 10 µM, 30 min, MCF-7, DAPI filter. How it is done:
We further examined the intracellular distribution of the compound 12b in MCF-7 cells, based on its fluorescence properties. Therefore, we incubated MCF-7 cells for 30 min with the tested compound 12b and analyzed its localization by fluorescence microscopy (Figure 3). No autofluorescence was detected by examining untreated cells under typical imaging conditions.
The MCF-7 cells were seeded on round microscopic coverslips placed in 24-well-plates (5 × 10^4 cells per well) and grown at 37 °C and 5% CO2 for 24 h in DMEM supplemented with FBS, penicillin, and streptomycin, as described above. Cells were then incubated with compound 12b (10 µM) for 30 min. Afterward, the medium was discharged, coverslips rinsed twice with PBS, placed on the microscopic slides, and immediately analyzed. The uptake and intracellular distribution of the tested derivative were analyzed under a fluorescence microscope (Olympus BX51) at 400 × magnification, using a DAPI filter. Images were captured with an Olympus DP70 Digital Camera.

In series [2] the test system is MCF-7 cells. Nature of the series: Cell cycle analysis by flow cytometry (PI). Format: cell-based, human. To be noted: 12b 10 µM, harmine 20 µM. On the procedure: To gain further insight into the potential mechanism of activity of 12b, and to examine whether and how the cell growth inhibition was associated with cell cycle regulation, we assessed its influence on the cell cycle of MCF-7 cells, 24 and 48 h after the treatment and compared it with the influence of the reference compound harmine (Figure 4).
MCF-7 cells were seeded onto 6-well plates (3 × 10^5 cells per well). After 24 h, 12b was added at 10 µM concentration and harmine at 20 µM concentration. After 24 h or 48 h, the attached cells were trypsinized, combined with floating cells, washed with phosphate buffer saline (PBS), fixed with 70% ethanol, and stored at −20 °C. Immediately before analysis, the cells were washed with PBS and stained with 50 μg/mL of propidium iodide (PI) with the addition of 0.1 μg/μL of RNAse A. The stained cells were then analyzed by BD FACScalibur flow cytometer (20,000 counts were measured). The percentage of cells in each cell cycle phase was determined using FlowJo software (TreeStar Inc., USA). The tests were performed in duplicate and repeated in three separate experiments.

The mark [3] stands for this setting: after 24 h (12b: persisted after 48 h).

For orientation: IC50 means the concentration that inhibits the measured activity by half. In general, melting point refers to the temperature, or range, at which the solid turns liquid. As for `Cc1ccc2oc(=O)cc(-n3cc(COc4ccc5c(c4)[nH]c4c(C)nccc45)nn3)c2c1` [12b, 6-Methyl-4-(4-(((1-methyl-9H-pyrido[3,4-b]indol-7-yl)oxy)methyl)-1H-1,2,3-triazol-1-yl)-2H-chromen-2-one], the melting point was 225.5 to 229.5 °C (dec.). Further, the IC50 in the series with HepG2 stood at 19.5 ± 1.5 µM. Also, the IC50 in the series on SW620 is 20.8 ± 0.4 µM. Further, in the series on HCT116 (Homo sapiens, HCT-116, MTT, 72 h, mean ± SD, read-out: IC50 HCT116), the IC50 was 4.7 ± 0.6 µM. The “SI (HCT116)” value with HCT116 (ratio IC50 HEK293T / IC50 HCT116) is listed as more than 10.6. Also, the IC50 in the series on MCF-7 (Homo sapiens, MCF7, MTT, 72 h, mean ± SD, read-out: IC50 MCF-7) amounted to 6.9 ± 0.7 µM. Besides, the “activity against MCF-7, fold stronger than 5-FU” value in the series with MCF-7 (compared with 5-FU IC50) came to 3.4 fold. Besides, in the series on MCF-7 (compared with harmine IC50), the “activity against MCF-7, fold higher than harmine” value is “twofold”. For the same molecule, the “SI (MCF-7)” value in the series on MCF-7 (ratio IC50 HEK293T / IC50 MCF-7) is recorded as more than 7.2. Moreover, in the series with HEK293T (Homo sapiens, HEK-293T, MTT, 72 h, mean ± SD, non-cancer cell line, read-out: IC50 Hek293T), the IC50 was more than 50 µM. Further, in the series with HEK293T (cancer cell line not specified (MCF-7 or HCT116)), the “SIs (selectivity towards cancer cells in comparison to HEK293T)” value is reported as more than 7.2. The intracellular distribution entry in the series with MCF-7 cells [1] is given as “predominantly cytoplasmic distribution; also recorded: localized exclusively in the cytoplasm; also recorded: localization within the cytoplasm, but not within the nucleus”. In the series with MCF-7 cells [2] (48 h, data not shown), the “accumulation of cells in the subG1 phase (apoptotic cells)” value was “up to 10%”. Moreover, in the series on MCF-7 cells [2] (setting [3]), the “effect on G1 phase of cell cycle” value is recorded as “strong G1 arrest” and the “effect on percentage of cells in S phase” value is “reduced the percentage of cells in the S phase; also recorded: drastic reduction in the percentage of cells in the S phase”.
